From PMC10877577 (ACS Chemical Biology, 2024)
Entries after “also recorded” stand apart in the source; their conditions may differ.

B1: aMinoC1: anti-minocycline single-domain antibody clone 1 from immunized alpaca, tested as sdAb-Fc (antibody, V domains shown)
VH: QVQLESGGGLVQPGSSLRLSCAASGRTFSSYNIGWFRQAPKEREFVAAISWSGARTYYADSVKGRFTISRDNAKNTVYLQMNSLKPEDTAVYSCAAGRGWGTEAILDYWGQGTQVSSA

Tests used:
[1] = system: aMinoC1-peptide complex; test: SPR rechallenge: small-molecule-driven dissociation of peptide-Fc from immobilized aMinoC1; type: binding; conditions: peptide-Fc 100 nM, small molecule 1 μM
Description: Binding assays were carried out using 1x HBS-EP+ running buffer. Various concentrations (2.5 μM with 2-fold serial dilutions) of the analyte were injected for 150 s at 30 μL/min with 150 s dissociation time. Glycine-HCl (pH 2.0) was used as the regeneration buffer for the sensor chips. For the rechallenge experiment, aMinoC1 was immobilized on a CM5 sensor chip and CX7C peptide-Fc conjugates were loaded at 100 nM and injected as the analyte for 150 s at 30 μL/min. Following the injection of peptide-Fc, a small molecule at 1 μM was injected for 300 s at 30 μL/min, using dual injection function on a Biacore 8k instrument, to dissociate the peptide-Fc from the aMinoC1-peptide complex. The system was then washed using HBS-P^+ buffer for 300 s at 30 μL/min prior to rechallenge with peptide-Fc. The cycle was repeated three times following a final dissociation step of 300 s. For the alanine scanning experiments, the anti-minocycline antibody (sdAb-muIgG2a-Fc fusion) was captured on a Protein A series S sensor chip, to a density of 3000 RU. […] Glycine-HCl (pH 1.5) was used as the regeneration buffer. In each case, flow cell 1 was used for reference subtraction, and a “0 concentration” sensogram of buffer alone was used as a double reference subtraction to factor for drift. Data analysis was carried out using Biacore T200 Evaluation Software, version 3.0, and Biacore Insight evaluation software. The 1:1 Langmuir binding model was used to calculate the association (ka), dissociation (kd) rate constants, and equilibrium dissociation constant (KD).

[2] = target: TetRB; conditions: cited from earlier work
[3] = system: aMinoC22 sdAb; test: SPR of related small molecules against aMinoC22; type: binding, alpaca; conditions: molecules closely related to minocycline
Description: (§1) Binding assays were carried out using 1x HBS-EP+ running buffer. Various concentrations (2.5 μM with 2-fold serial dilutions) of the analyte were injected for 150 s at 30 μL/min with 150 s dissociation time. Glycine-HCl (pH 2.0) was used as the regeneration buffer for the sensor chips. For the rechallenge experiment, aMinoC1 was immobilized on a CM5 sensor chip and CX7C peptide-Fc conjugates were loaded at 100 nM and injected as the analyte for 150 s at 30 μL/min. Following the injection of peptide-Fc, a small molecule at 1 μM was injected for 300 s at 30 μL/min, using dual injection function on a Biacore 8k instrument, to dissociate the peptide-Fc from the aMinoC1-peptide complex. The system was then washed using HBS-P^+ buffer for 300 s at 30 μL/min prior to rechallenge with peptide-Fc. The cycle was repeated three times following a final dissociation step of 300 s. For the alanine scanning experiments, the anti-minocycline antibody (sdAb-muIgG2a-Fc fusion) was captured on a Protein A series S sensor chip, to a density of 3000 RU. […] Glycine-HCl (pH 1.5) was used as the regeneration buffer. In each case, flow cell 1 was used for reference subtraction, and a “0 concentration” sensogram of buffer alone was used as a double reference subtraction to factor for drift. Data analysis was carried out using Biacore T200 Evaluation Software, version 3.0, and Biacore Insight evaluation software. […]

[4] = system: MinoCAR-transduced PBMC against SupT1-EGFR+ target cells; type: cell-based; conditions: 0.1, 1 and 10 μM, 24 h, 1:2 E/T
Description: Transduced CAR T cells were determined by staining for the transduction marker RQR8 and normalized by the addition of nontransduced T cells. Effector cells were cocultured with 5.0 × 10^4 number of target cells (SupT1-NT, SupT1-EGFR+, SKOV3-mKate) to achieve the desired effector cell to target ratio. […] Cocultures were incubated for 24–72 h at 37 °C and 5% CO2. After incubation, plates were centrifuged at 400g for 5 min, and the supernatant containing secreted cytokines was collected for cytokine analysis. Cells were stained with anti-hCD34-APC and anti-CD3-PeCy7 to differentiate effector T cells and target cells. Cells were washed with 300 μL o PBS and stained with SYTOX Blue Dead Cell Stain dye. The percentage of target cell survival was measured relative to the number of live target cells cocultured with nonspecific CAR T cells or nontransduced PBMCs.

[5] = system: aMinoC1 sdAb; test: SPR of peptide-Fc or small-molecule analytes against aMinoC1; type: binding, alpaca; conditions: molecules closely related to minocycline
Description: as §1

[6] = nanoDSF thermal unfolding of aMinoC1; type: physicochemical
Description: A dye-free protocol was used whereby the intrinsic fluorescence of tryptophan and tyrosine was measured by scanning samples at 330 and 350 nm to determine protein unfolding. […] Melting scan was carried out by setting the run at 1 °C/min temperature increments from 20 to 95 °C. Tm was calculated as first derivative of 350/330 nm ratio.

[7] = SPR of anti-minocycline sdAb-Fc clones binding to minocycline
Description: as §1

[8] = Isothermal titration calorimetry of aMinoC1 binding to minocycline; conditions: sdAb-Fc 2 μM titrated with minocycline 50 μM, 25 °C; read-out: KD (ITC)
Description: ITC measurements were performed using the PEAQ-ITC nonautomated (MicroCal) at 25 °C. The antibody sample was dialyzed overnight using 5 L of PBS (20 mM Na3PO4, 150 mM NaCl, pH 7.4). […] The concentration of the anti-minocycline sdAb (as murine IgG2a Fc fusion) was determined using extinction coefficients ε280 nm = 31,065 M^–1 cm^–1.

Molecule | GWARA-Fc dissociation from immobilized aMinoC1 on small-molecule injection [1] | peptide-Fc (HWAQA, PWAYS and QWAMM) dissociation from immobilised aMinoC1 on small-molecule injection [1] | Kd [2] [nM] | binding to aMinoC22 (SPR) [3] | effect of other small molecules on MinoCAR cytotoxicity [4] | binding to aMinoC1 (SPR) [5] | first unfolding midpoint (Tm50) ([6]; aMinoC1 alone, PBS pH 7.4) [°C] | improvement of Tm50 with minocycline ([6]; minocycline 1 nM to 2.5 mM) | Tm50 on coincubation with minocycline ([6]; minocycline ranging from 1 nM to 2.5 mM) [°C] | ka [7] [M⁻¹ s⁻¹] | kd [7] [s⁻¹] | Kd [8] [nM]
CN(C)[C@@H]1C(O)=C(C(N)=O)C(=O)[C@@]2(O)C(O)=C3C(=O)c4c(O)cccc4[C@@](C)(O)[C@H]3C[C@@H]12 [tetracycline] | No enhanced dissociation | No enhanced dissociation | 2.8 | Neither sdAb showed an interaction; also recorded: lack of binding | not affected | Neither sdAb showed an interaction; also recorded: lack of binding; also recorded: without cross-reactivity |  |  |  |  |  | 
B1 |  |  |  |  |  |  | 79.5 | over 10 °C | 89.6 | 1.13e+06 | 0.036 | 24.9
